According to patent US20120329770A1, “CEPHALOSPORIN DERIVATIVES USEFUL AS BETA-LACTAMASE INHIBITORS AND COMPOSITIONS AND METHODS OF USE THEREOF” (priority 2010, published 2012):

Experiments:
[1] = target: T1, IMP-1 (Serratia marcescens, UniProt P52699); test: Sensitivity of IMP-1 to proteolysis by trypsin after incubation with inhibitor; format: biochemical; settings: incubation of IMP-1 with inhibitor
T1 construct: made in house; host or cells: Escherichia coli BL21(DE3) carrying pCIP4

[2] = system: Pseudomonas aeruginosa IS 5563; test: Antimicrobial MIC / checkerboard assay for synergy with meropenem; format: cell-based; settings: P. aeruginosa IS 5563; meropenem + compound, checkerboard
Method: (§1) Assays were conducted as described by Weigand et al. (Weigand, I.; Hilpert, K.; Hancock, R. E. Nat. Protocols 2008, 3, 163-175).
(§2) To determine the lowest concentration of an antimicrobial agent that inhibits visible growth of a microorganism, 50 μL of compound solution and 50 μL of buffer solution were added to each well at the desired concentration(s) (i.e. 4×the final concentration) as well as a zero control. Stock solutions of 10 mg/mL, were prepared in DMSO, followed by two-fold serial dilutions in Müeller-Hinton media and 100 μL of bacteria (ca. 5×10^5 CFU/mL) was added to each well. Plate counts were performed on the control wells to determine bacterial innoculum level. The innoculum was prepared by taking an overnight culture in Müeller-Hinton media and diluting to McFarland's 0.5 standard, and diluting a further 1:100 prior to addition to the plate. Lanes with no bacteria added served as sterility controls and lanes with no compound served as growth controls. Organisms were allowed to grow overnight at 37° C. in a humid environment and the plates were monitored at 625 nm for growth. MIC was determined to be the last well with no growth.
(§3) In the checkerboard assay one compound is serially diluted along the ordinate, and the second compound is serially diluted along the abscissa. […] A 50 μL aliquot of the compound was added to each well at the desired concentration(s) (i.e. 4×the final concentration) as well as a zero control. Stock solutions of 10 mg/mL of compound were prepared in DMSO, followed by two-fold serial dilutions in Müeller-Hinton media. Finally, 100 μL of bacteria (ca. 5×10^5 CFU/mL) was added to each well. Plate counts were performed on the control wells. Innoculum was prepared by taking an overnight culture in Müeller-Hinton media and diluting to McFarland's 0.5 standard, and diluting a further 1:100 prior to addition to the plate. […] The final volume in each well was 200 μL. The plates were allowed to grow overnight at 37° C. in a humid environment and were monitored at 625 nm for growth. […] Sterility controls and growth controls were included on each plate. The fractional inhibitory concentration (FIC) was determined as follows:
(§4) Results were interpreted in the following way: Synergistic if FIC≦0.5; Additive if […]; Indifferent if […]; Antagonistic if FIC≧2.0.

[3] = system: Stenotrophomonas maltophilia IS 5568; test: as above; format: cell-based; settings: S. maltophilia IS 5568; meropenem + compound, checkerboard
Method: as §1, §2, §3, §4

[4] = system: Stenotrophomonas maltophilia IS 6081; test: as above; format: cell-based; settings: S. maltophilia IS 6081, meropenem + compound
Method: as §1, §2
(§5) In the checkerboard assay one compound is serially diluted along the ordinate, and the second compound is serially diluted along the abscissa. […] A 50 μL aliquot of the compound was added to each well at the desired concentration(s) (i.e. 4×the final concentration) as well as a zero control. Stock solutions of 10 mg/mL of compound were prepared in DMSO, followed by two-fold serial dilutions in Müeller-Hinton media. Finally, 100 μL of bacteria (ca. 5×10^5 CFU/mL) was added to each well. Plate counts were performed on the control wells. Innoculum was prepared by taking an overnight culture in Müeller-Hinton media and diluting to McFarland's 0.5 standard, and diluting a further 1:100 prior to addition to the plate. Lanes with no bacteria added served as sterility controls and lanes with no meropenem or compound served as growth controls. The final volume in each well was 200 μL. The plates were allowed to grow overnight at 37° C. in a humid environment and were monitored at 625 nm for growth. […] Sterility controls and growth controls were included on each plate. The fractional inhibitory concentration (FIC) was determined as follows:
as §4

[5] = system: Pseudomonas aeruginosa IS 6225; test: as above; format: cell-based; settings: P. aeruginosa IS 6225, meropenem + compound
Method: as §1, §2, §5, §4

[6] = system: Stenotrophomonas maltophilia IS 6069; test: as above; format: cell-based; settings: S. maltophilia IS 6069, meropenem + compound
Method: as §1, §2, §5, §4

[7] = system: Pseudomonas aeruginosa C-10; test: as above; format: cell-based; settings: P. aeruginosa C-10; meropenem + compound, checkerboard
Method: as §1, §2, §5, §4

[8] = system: Chryseobacterium meningosepticum IS 5824; test: as above; format: cell-based; settings: C. meningosepticum IS 5824; meropenem + compound, checkerboard
Method: as §1, §2, §5, §4

[9] = system: β-lactamases; test: β-Lactamase inhibition, result in words; format: biochemical
Excerpt: In preferred embodiments, the compounds incorporate a good leaving group at the C3′ carbon that can be readily expelled as an anion. In some embodiments, the leaving group is a C3′-benzoylthio group, which may be substituted or unsubstituted, according to the definitions provided above for substituted or unsubstituted.
This effect correlates with the expected better leaving group ability of the benzoylthio group in the hydrolysis product versus the benzoate group in the comparative compound.

[10] = target: T2, VIM-2 metallo-β-lactamase (Pseudomonas aeruginosa, UniProt Q9K2N0); test: Inhibition of β-lactamases, nitrocefin hydrolysis; format: biochemical; settings: nitrocefin 100 μM, 10 min pre-incubation; read-out: IC50 VIM-2 (Class B)
T2 construct: made in house; host or cells: Escherichia coli BL21 (DE3) pLysS carrying pNOR2001
Method: VIM-2 metallo-β-lactamase was expressed in Escherichia coli BL21 (DE3) pLysS carrying pNOR2001 (a generous gift from P. Nordmann, Université Paris XI, France) and purified as reported by Poirel et al. (Antimicrob. Agents Chemother. 2000, 44, 891-897). The homogeneity and molecular weight of the mature VIM-2 (29.7 kDa) was determined by SDS-PAGE (Laemmli, U. K. Nature 1970, 227, 680-685). Enzyme concentration was determined from the absorbance at 280 nm (εEM=32,000 M^−1 cm^−1).
(§6) Assay conditions for IC50 determinations involved enzyme concentrations ranging between 2 and 6 nM. The concentration used for the nitrocefin substrate was 100 μM. Assays with OXA-10 and OXA-45 were conducted at pH 7.0 with 100 mM sodium phosphate buffer containing 25 mM sodium bicarbonate. Assays with KPC-2 and GC1 were performed at pH 7.0 in 50 mM HEPES buffer and assays with IMP-1 and VIM-2 were performed in the same buffer with the addition of 500 mM NaCl and 1 μM ZnSO4. BSA was used with all enzymes (except OXA-10 and KPC-2) at concentrations of 0.5-1.0 μg/mL.
(§7) Inhibitors were pre-incubated for 10 minutes at room temperature with enzyme assay solutions prior to the addition of the nitrocefin. […] Enzymatic activity was determined using the initial rate of increase in absorbance at 482 nm

[11] = target: class D β-lactamase OXA-45 (Pseudomonas aeruginosa, UniProt Q7WZC7); test: Inhibition of β-lactamases, nitrocefin hydrolysis; format: biochemical
Sequence of class D β-lactamase OXA-45 (Q7WZC7 entry or part of it): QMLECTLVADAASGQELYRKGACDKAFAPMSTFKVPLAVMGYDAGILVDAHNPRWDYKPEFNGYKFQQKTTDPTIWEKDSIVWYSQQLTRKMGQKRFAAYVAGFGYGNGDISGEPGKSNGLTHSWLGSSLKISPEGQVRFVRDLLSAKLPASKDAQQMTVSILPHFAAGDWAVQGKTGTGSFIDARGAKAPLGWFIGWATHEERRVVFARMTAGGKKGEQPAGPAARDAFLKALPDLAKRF
Method: OXA-45 β-lactamase was purified in the laboratory of Prof. T. Walsh (University of Bristol, UK) according to the method published (Toleman, M. A.; Rolston, K.; Jones, R. N.; Walsh, T. R. Antimicrob. Agents Chemother. 2003, 47, 2859-2863) and provided to this laboratory as a kind gift.
as §6
(§8) Inhibitors were pre-incubated for 10 minutes at room temperature with enzyme assay solutions prior to the addition of the nitrocefin. These compounds were dissolved in DMSO and prepared at various concentrations such that the final concentration of DMSO was 1% during the pre-incubation. The reaction was initiated by the addition of the pre-incubated enzyme-cyclobutanone solution (90 μL) to a solution of nitrocefin in buffer (10 μL). Enzymatic activity was determined using the initial rate of increase in absorbance at 482 nm

[12] = target: T3, class D β-lactamase OXA-10 (Pseudomonas aeruginosa, UniProt P14489); test: Inhibition of β-lactamases, nitrocefin hydrolysis; format: biochemical
T3 construct: indicating a post-translational deletion of a 20 amino acid signal peptide; made in house; host or cells: Escherichia coli BL21 (DE3), pET24a-blaOXA-10, purified from culture supernatant
T3 sequence (P14489 20-266): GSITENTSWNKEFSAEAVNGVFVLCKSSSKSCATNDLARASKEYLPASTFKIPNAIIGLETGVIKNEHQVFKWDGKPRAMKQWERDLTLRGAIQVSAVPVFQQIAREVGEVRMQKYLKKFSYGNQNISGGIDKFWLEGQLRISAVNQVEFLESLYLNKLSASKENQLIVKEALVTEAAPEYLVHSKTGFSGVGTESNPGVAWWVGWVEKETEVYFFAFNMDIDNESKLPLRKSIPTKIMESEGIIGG
Excerpt: OXA-10 β-lactamase was expressed and purified using a modified protocol of that reported by Golemi et al. (J. Am. Chem. Soc. 2000, 122, 6132-6133). The pET24a plasmid with the blaOXA-10 gene insert, a kind gift from Prof. S. Mobashery (Notre Dame University), was transformed into Escherichia coli BL21 (DE3) and induced with IPTG. Purification of the enzyme was achieved by the addition of ammonium sulfate to the induced culture supernatant. The protein precipitate collected (50-70% ammonium sulfate saturation) was dissolved and dialyzed against 10 mM Tris.SO4 buffer, pH 7.5, and further purified with a DE52 cellulose column (Whatman, UK) equilibrated with the same buffer. The material bound to the column was washed with 10 mM Tris.SO4 buffer, pH 7.5, followed by an elution with a K2SO4 gradient (0-100 mM). Protein fractions containing nitrocefin-hydrolyzing activity were concentrated and purity analyzed by SDS-PAGE. A molecular weight of 27,490 Da for OXA-10 was determined by ESI MS, indicating a post-translational deletion of a 20 amino acid signal peptide.
(§9) Assay conditions for IC50 determinations involved enzyme concentrations ranging between 2 and 6 nM. […]
as §7

[13] = target: T4, class A β-lactamase KPC-2 (Klebsiella pneumoniae, UniProt Q9F663); test: Inhibition of β-lactamases, nitrocefin hydrolysis; format: biochemical; settings: nitrocefin 100 μM, 10 min pre-incubation
T4 construct: calculated for a mature protein with a 24 amino acid signal peptide removed; made in house; host or cells: Escherichia coli DH5α (pBR322-catI-blaKPC-2)
T4 sequence (Q9F663 25-293, looked up): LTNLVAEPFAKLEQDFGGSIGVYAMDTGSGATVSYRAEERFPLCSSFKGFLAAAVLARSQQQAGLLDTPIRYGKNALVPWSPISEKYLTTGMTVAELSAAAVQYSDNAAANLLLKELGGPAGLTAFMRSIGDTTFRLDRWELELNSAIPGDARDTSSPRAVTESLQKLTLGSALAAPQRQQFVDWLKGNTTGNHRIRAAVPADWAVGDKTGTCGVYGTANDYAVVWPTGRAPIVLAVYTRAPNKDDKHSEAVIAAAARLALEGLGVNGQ
Method: The KPC-2 β-lactamase was purified from Escherichia coli DH5α strain containing the plasmid, pBR322-catI-blaKPC-2, which was kindly provided by Prof. F. van den Akker (Case Western Reserve University). Expression and purification of the enzyme was similar to that reported by Ke et al. (Biochemistry 2007, 46, 5732-5740). A molecular weight of 28,472 Da for the purified KPC-2 was determined by ESI MS. This is in close agreement with that calculated for a mature protein with a 24 amino acid signal peptide removed.
as §6, §7

[14] = target: T5, class C β-lactamase GC1 (Enterobacter cloacae, UniProt Q59401); test: Inhibition of β-lactamases, nitrocefin hydrolysis; format: biochemical; settings: nitrocefin 100 μM, 10 min pre-incubation
T5 construct: made in house; host or cells: Escherichia coli AS226-51 harbouring pCS100
T5 sequence (Q59401 entry or part of it): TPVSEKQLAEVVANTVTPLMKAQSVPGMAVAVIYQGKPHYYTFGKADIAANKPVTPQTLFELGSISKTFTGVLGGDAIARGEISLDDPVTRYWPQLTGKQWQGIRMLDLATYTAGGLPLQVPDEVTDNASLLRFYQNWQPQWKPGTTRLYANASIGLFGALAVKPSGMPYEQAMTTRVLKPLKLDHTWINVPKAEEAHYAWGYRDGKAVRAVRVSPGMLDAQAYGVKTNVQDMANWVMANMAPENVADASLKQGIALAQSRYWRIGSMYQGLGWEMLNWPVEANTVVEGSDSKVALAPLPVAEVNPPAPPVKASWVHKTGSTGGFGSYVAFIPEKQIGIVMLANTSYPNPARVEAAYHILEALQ
Method: GC1 β-lactamase was purified from Escherichia coli AS226-51 harbouring pCS100, which was a generous gift from Prof. M. Nukaga (Josai International University, Japan). The cell culture was harvested and subjected to a stringent periplasmic lysis protocol according to Crichlow et al. (Biochemistry 1999, 38, 10256-10261.). Purification proceeded similarly to Nukaga et al. (J. Biol. Chem. 2004, 279, 9344-9352.) with cation exchange chromatography (CM Sephadex C-50) equilibrated with 10 mM sodium phosphate buffer (pH 6), followed by elution with a stepwise gradient of increasing NaCl concentration. Fractions containing β-lactamase activity were then applied to a phenylboronate column (MoBiTec, Germany), equilibrated with 20 mM triethanolamine.HCl, pH 7.0, 0.5 M NaCl. The column was washed with the same buffer and then eluted with sterile 0.5 M borate buffer, pH 7.0, 0.5 M NaCl. Active fractions eluted from the phenylboronate column were analyzed for purity via SDS-PAGE, pooled, and concentrated before buffer exchange to 100 mM sodium phosphate, pH 7.0.
as §9, §7

[15] = target: T6, IMP-1 metallo-β-lactamase (Serratia marcescens, UniProt P52699); test: Inhibition of β-lactamases, nitrocefin hydrolysis; format: biochemical
T6 construct: made in house; host or cells: Escherichia coli BL21(DE3) carrying pCIP4
T6 sequence (P52699 19-246, looked up): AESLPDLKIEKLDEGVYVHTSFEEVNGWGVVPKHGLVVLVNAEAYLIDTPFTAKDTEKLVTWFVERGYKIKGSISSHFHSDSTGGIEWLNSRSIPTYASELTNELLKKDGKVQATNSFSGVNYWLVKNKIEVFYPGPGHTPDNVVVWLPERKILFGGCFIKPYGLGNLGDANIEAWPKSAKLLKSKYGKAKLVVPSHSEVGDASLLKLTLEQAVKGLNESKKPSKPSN
Excerpt: IMP-1 metallo-β-lactamase was expressed in Esherichia coli BL21(DE3) carrying pCIP4 and purified as reported by Laraki et al. (Antimicrob. Agents Chemother. 1999, 43, 902-906). The homogeneity of the protein was confirmed by SDS-PAGE according to the method of Laemmli (Nature 1970, 227, 680-685). The molecular weight of purified IMP-1, Mr=25,112±0.5 Da, as determined by ESI-MS, was in agreement with that deduced from its amino acid sequence (Laraki et al. Antimicrob. Agents Chemother. 1999, 43, 890-901).
as §6, §8

[16] = target: class B β-lactamase NDM-1 (Klebsiella pneumoniae, UniProt C7C422); test: Inhibition of β-lactamases, nitrocefin hydrolysis; format: biochemical; settings: 15 μM nitrocefin
Sequence of class B β-lactamase NDM-1 (C7C422 29-270, looked up): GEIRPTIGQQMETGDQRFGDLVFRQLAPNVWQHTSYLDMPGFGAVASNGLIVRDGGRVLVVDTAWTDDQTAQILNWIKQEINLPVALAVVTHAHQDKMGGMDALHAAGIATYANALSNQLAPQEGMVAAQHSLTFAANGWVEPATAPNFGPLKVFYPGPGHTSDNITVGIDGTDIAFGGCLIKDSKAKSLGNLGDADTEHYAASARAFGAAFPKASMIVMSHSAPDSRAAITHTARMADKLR

T1 sequence (P52699 19-246 limits assumed): as the sequence (P52699 19-246, looked up) above

Structure (SMILES)	effect on sensitivity of IMP-1 to proteolysis by trypsin [1]	FIC [2]	FIC [3]	FIC [4]	FIC [5]	FIC [6]	FIC [7]	FIC [8]	β-lactamase inhibition [9]	IC50 [10] [µM]	IC50 [11] [µM]	IC50 [12] [µM]	IC50 [13] [µM]	IC50 [14] [µM]	IC50 [15] [µM]	IC50 [16] [µM]
O=C(Cc1cccs1)N[C@@H]1C(=O)N2C(C(=O)O)=C(CSC(=O)c3ccccc3)CS[C@H]12 [CMPD A, (6R,7R)-3-(benzoylthiomethyl)-8-oxo-7-(2-(thiophen-2-yl)acetamido)-5-thia-1-azabicyclo[4.2.0]oct-2-ene-2-carboxylic acid]	increases the sensitivity of the protein to proteolysis by trypsin	0.1289	0.1328	0.2539	0.625	0.25	0.5625	0.2539	good inhibitor							
O=C(Cc1cccs1)N[C@@H]1C(=O)N2C(C(=O)O)=C(CSC(=O)c3ccccc3)CS[C@H]12 [drawing 27]										1.8	24	8.1	71	140	3.1	33
